Test results from patent publication US6495376B1, “Methods and compositions for regulating protein-protein interactions” (Beth Israel Deaconess Medical Center, priority 1999, dated 2002).
Like-named read-outs stand apart in the source and are kept apart here.

Key:
peptide substrate = assay: PPIase activity assay with peptide substrate; assay type: biochemical; conditions: relative to wild-type protein defined as 100%
WFYpSPFLE (Pintide) = assay: Fluorescence anisotropy (polarization) binding to fluorescein-labeled phosphorylated Pintide analogue; conditions: for Kd for Pintide (μM): fluorescein labeled Pintide, high affinity pSer-binding site in the WW-domain
Excerpt: To determine the affinity of Pin1, and its WW or PPIase domain for phosphopeptides, peptides were labeled with fluorescein and their interactions with Pin1 measured using quantitative fluorescence anisotrophy. To prevent nonspecific labeling, a Pintide analogue (WFYpSPFLE) SEQ ID NO: 9 was used, which binds Pin1 with a high affinity based on the peptide library screen as described by (Lu, K. P. et al., U.S. Ser. No. 60/058,164 (1997), the teachings of which are incorporated herein in their entirety.
(§1) Pintide and its nonphosphorylated counterpart were synthesized and incubated with GST-Pin1 or the GST-WW-domain of Pin1 in a binding buffer, using established procedures (Shen, M. et al., Genes & Dev 12:706 (1998)). After a 1 hr incubation, mitotic HeLa cell extracts were added and subjected to GST pull down experiments, followed by immunoblotting analysis using the MPM-2 antibody. To obtain semi-quantitative data, films of immunoblots were scanned at the region of 55 kDa, the major Pin1-binding protein, and data analyzed using ImageQuan (ScanJet II CX). The peptide binding constants were measured using a fluorescence polarization assay (Jiskoot, W. et al., Anal Biochem 196:421 (1991)). Peptides were fluorescein labeled at the N-terminus using the Fluorescein Amine Labeling Kit (Pan Vera Corp.) and purified by TLC according to the manufacturer's […]. To prevent nonspecific labeling, a Pintide analogue (WFYpSPFLE) SEQ ID NO: 8 and the nonphosphorylated control were used. Various concentrations of Pin1 and its mutant proteins were incubated with 0.1 μM of the labeled peptides in a binding buffer containing 50 mM HEPES, pH 7.4, 100 mM NaCl, 2% glycerol. Fluorescence polarization values were obtained using a Pan Vera Beacon 2000 system, as described by the manufacturer.

[1] = tested on: MPM-2 antigens (mitotic phosphoproteins) of mitotic HeLa cell extracts; assay: GST pulldown from mitotic HeLa cell extracts, MPM-2 immunoblotting (phosphoprotein-binding activity); conditions: for Phosphoprotein binding activity: GST-fusion proteins with mitotic extracts, MPM2 antibody; for binding to mitotic phosphoproteins / MPM-2 antigens (in words): mitotic HeLa cell extracts
Procedure: GST-fusion proteins containing the WW-domain, PPIase-domain or the entire Pin 1 protein were prepared and incubated with interphase (G1/S arrested; Control) or dividing (M phase) HeLa cell extracts using well-known procedures (Lu, K. P., et al., Nature 380:544 (1996); (Shen, M., et al., Genes & Devl. 12:706 (1998)). Briefly, HeLa cells were arrested at the G1/S boundary or mitosis by incubation with thymidine and aphidicolin or nocodazole for 16 h, respectively. The cells were lysed and supernatants incubated with 10 μl of agarose beads containing GST-Pin1; GST-WW-domain of Pin1; GST-PPIase domain of Pin1; or control GST for 2 h at 4° C. The phosphorylated precipitated proteins were washed 5 times in buffer containing 1% Triton X-100 before subjecting to immunoblotting analysis using MPM-2 antibody, as described previously (Yaffe, M. B. et al., Science 278:1957 (1997); Schukowski, et al., Biochemistry 37:5566 (1998); Shen, M. et al., Genes & Dev 12:706 (1998)). MPM-2 recognizes a subset of mitotic phosphoproteins including Pin1-binding proteins such as cdc25.
as §1
To examine the effect of Pin1 phosphorylation on Pin1 binding to ligands, Pin1 and Pin1 mutant proteins were incubated with the catalytic subunit of PKA and PKC (a mixture of α, β and γ, UBI) in a kinase reaction buffer containing 500 μM cold ATP at 30° C. for 15 min (Lu, K. P. et al., Anal. Biochem. 196:421 (1991)). The reactions were stopped by adding SDS sample buffer and reaction products separated on SDS-gels, followed by autoradiography. Pin1 proteins were isolated and used to bind MPM-2 antigens from mitotic extracts from HeLa cells, as previously described (Shen, M., et al., Genes & Dev 12:706 (1998)). Experiments were also performed with PKA and PKC, casein kinase, cyclin B/Cdc2 and SRPK1 kinases.

tau-promoted MT assembly = assay: Microtubule assembly light-scattering assay (turbidity at 350 nm); assay type: biochemical; conditions: 0.05 mg/ml protein, 0.05 mg/ml tau
Sequence of tau-promoted MT assembly (P10636 45-219 isoform P10636-2 limits assumed): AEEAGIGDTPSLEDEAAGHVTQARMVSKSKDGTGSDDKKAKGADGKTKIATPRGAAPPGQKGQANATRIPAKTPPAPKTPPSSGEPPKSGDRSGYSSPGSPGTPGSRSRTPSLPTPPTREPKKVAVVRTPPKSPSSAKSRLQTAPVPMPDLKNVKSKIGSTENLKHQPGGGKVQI
Procedure: The effect of Pin1 on the ability of phosphorylated tau to promote MT assembly was determined using light-scattering assays (Bramblett, G. T. et al., Neuron 10:1089-1099(1993); Alonso, A. C. et al., Proc Natl Acad Sci USA 91:5562-5566 (1994); Busciglio, J. et al., Neuron 14:879-888 (1995)). Briefly, MTs were assembled from phosphocellulose purified bovine tubulin (Cytoskeleton, Inc) and stabilized by Taxol. The nonphosphorylated or Cdc2 phosphorylated recombinant tau (0.1 mg/ml) was incubated with Pin1 (0.1 mg/ml) at 35° C. for 5 min before adding to the MTs. Bound tau was isolated by centrifugation (50,000×g) at 25° C. for 20 min, followed by immunoblotting analysis using CP27 and Pin1 antibodies. The ability of tau to promote MT assembly was determined using well established light-scattering assays. Briefly, the assembly of MTs was initiated by incubating tubulin (2 mg/ml) with or without tau (0.05 mg/ml) in 80 mM PIPES, pH 6.8, 1 mM EGTA, 1 mM MgCl2, 1 mM GTP, 20% glycerol at 35° C. for 2 min. The mixture was then transferred to a 100 μl cuvet and the rate of the MT assembly was monitored at room temperature using the turbidity increase at 350 nm. To examine the effect of Pin1, Pin1 or its mutant (0.05 mg/ml) was pre-incubated with tau or Cdc2 phosphorylated tau (0.05 mg/ml) at 35° C. for 5 min before the MT assembly assays.

[2] = tested on: temperature-sensitive ptf1 yeast mutant (YPM2); assay: Rescue of temperature-sensitive ptf1 yeast mutant (in vivo function); assay type: cell-based; conditions: YPM2 cells, restrictive temperature
Procedure: Given the essential role of the WW-domain in conferring Pin1-binding specificity in vitro, a critical question is whether this domain is important in vivo. To address this question, experiments using the PIN1 yeast homologue, ESS1/PTF1 were performed. ESS1/PTF1 is essential for cell growth and human Pin1 can carry out this essential function when transfected into yeast cells (Lu, K. P. et al., Nature 380:544 (1996); Hanes, S. D. et al., Yeast 5:55 (1989); Hani, J. et al., FEBS Lett. 365:198 (1995)). A temperature-sensitive ptf1 mutant strain, YPM2, grows at the permissive temperature (23° C.), but not at the restrictive temperature (30° C.) (Hanes, S. D. et al., Yeast 5:55 (1989); Hani, J. et al., FEBS Lett. 365:198 (1995)). This phenotype is completely rescued by a 1.5 kb PTF1 genomic fragment, which also contains the promoter and the 3′ processing sequence (FIG. 3). To insure that all human Pin1 proteins were expressed at physiological levels under normal regulation, the coding sequence of the fully functional ESS1/PTF1 gene in a Yepvector was replaced with the coding sequence of the human PIN1 (or Pin1 mutant) cDNA (FIG. 3) and transformed into a temperature-sensitive ptf1 strain. Transformants were selected on minimal media minus Leu at the permissive temperature (23° C.) and protein expression was detected by immunoblotting analysis using 12CA5 monoclonal antibody specific for the HA epitope tag inserted at the N-terminus. […] Those strains expressing similar levels of Pin1 and Pin1 mutants were grown at permissive and nonpermissive temperature.

Pin1 = Pin1 (Homo sapiens, UniProt Q13526); assay: ELISA peptide binding to Pin1; conditions: Pin1
Sequence of Pin1 (Q13526 whole entry): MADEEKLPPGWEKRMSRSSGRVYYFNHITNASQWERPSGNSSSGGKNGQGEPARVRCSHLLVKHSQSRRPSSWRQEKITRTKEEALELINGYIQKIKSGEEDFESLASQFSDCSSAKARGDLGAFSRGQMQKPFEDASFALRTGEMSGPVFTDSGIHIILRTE

Pin1^Y23A = molecular target: T1, Pin1^Y23A (Homo sapiens, UniProt Q13526, Y23A); assay: ELISA peptide binding to Pin1^Y23A; conditions: mutant Pin1^Y23A
T1 construct: mitotic HeLa cell extracts incubated with the entire Pin1 protein or its WW-domain; GST or His (N); made in house
T1 sequence (Q13526 whole entry Y23A): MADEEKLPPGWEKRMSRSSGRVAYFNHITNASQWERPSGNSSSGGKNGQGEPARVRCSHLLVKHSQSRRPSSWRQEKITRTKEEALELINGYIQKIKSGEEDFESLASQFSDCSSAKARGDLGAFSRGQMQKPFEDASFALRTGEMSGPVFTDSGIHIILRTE

Pin1^R14A = molecular target: T2, Pin1^R14A (Homo sapiens, UniProt Q13526, R14A); assay: ELISA peptide binding to Pin1^R14A; conditions: mutant Pin1^R14A
T2 construct: mitotic HeLa cell extracts incubated with the entire Pin1 protein or its WW-domain; GST or His (N); made in house
T2 sequence (Q13526 whole entry R14A): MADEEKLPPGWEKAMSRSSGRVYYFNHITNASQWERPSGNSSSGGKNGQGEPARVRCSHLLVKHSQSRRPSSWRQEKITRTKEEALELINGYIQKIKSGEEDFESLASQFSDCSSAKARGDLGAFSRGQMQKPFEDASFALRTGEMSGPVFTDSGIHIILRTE

[3] = molecular target: EQPLpTPVTDL (Cdc25 Peptide); assay: Fluorescence anisotropy binding to fluorescein-labeled phosphorylated Cdc25 peptide; conditions: GST-WW-domains
[4] = molecular target: […] (Cdc25 Peptide, nonphosphorylated); assay: GST-WW-domain incubated with peptide on a membrane, immunoblotting with GST antibody; assay type: binding
WFYSPFLE = assay: Fluorescence anisotropy binding to fluorescein-labeled nonphosphorylated control peptide; conditions: GST-WW-domains, N.B., not binding detected
[5] = low affinity binding site, read-out: WFYpSPFLE Kd(μM) Low affinity

Compound | PPlase Activity (%) (peptide substrate) | Kd for Pintide (μM) (WFYpSPFLE (Pintide)) | Kd (WFYpSPFLE (Pintide); [5]) | Phosphoprotein binding activity [1] | binding to mitotic phosphoproteins / MPM-2 antigens (in words) [1] | effect on ability of Cdc2 phosphorylated tau to promote MT assembly (tau-promoted MT assembly) | complementation of temperature-sensitive ptf1 phenotype (in words) [2] | WFYpSPFLE Kd(μM) High affinity (WFYpSPFLE (Pintide); high affinity binding site) | Binding (OD@405 nm), tau peptides (Pin1) | Binding (OD@405 nm), tau peptide (Pin1^Y23A) | Binding (OD@405 nm), tau peptide (Pin1^R14A) | Kd [3] | Kd (WFYpSPFLE (Pintide); GST-WW-domains, fluorescein-labeled peptide, average of three independent experiments, read-out: Kd (μM) Pintide WFYpSPFLE) | Kd (μM) Cdc25 Peptide EQPLTPVTDL [4] | Kd (μM) Pintide nonphosphorylated WFYSPFLE (WFYSPFLE) | Kd (μM) Pintide nonphosphorylated WFYSPFLE (WFYSPFLE; listed as WW-domain of Nedd4)
Pin1^Y23A: Pin1 with single Ala point mutation of Tyr-23 in the WW-domain | 85% | N.B. | 13.5 µM | − | completely abolished | did not have any effect | abolish the ability of Pin1 to support cell growth |  |  |  |  |  |  |  |  | 
Pin1^S16E: Pin1 with Ser-16 mutated to Glu | 95% |  | 10.5 µM | − | failed to bind mitotic phosphoproteins |  | abolish the ability of Pin1 to support cell growth | no high affinity-binding site |  |  |  |  |  |  |  | 
Pin1^W34A: Pin1 with single Ala point mutation of Trp-34 in the WW-domain | 94% | N.B. | 14 µM | − | completely abolished |  | abolish the ability of Pin1 to support cell growth |  |  |  |  |  |  |  |  | 
CC(C)[C@H](NC(=O)[C@H](C)NC(=O)[C@@H](NC(=O)[C@@H](N)CCCCN)C(C)C)C(=O)N[C@H](C(=O)N[C@@H](CCCNC(=N)N)C(=O)N[C@H](C(=O)N1CCC[C@H]1C(=O)N1CCC[C@H]1C(=O)N[C@@H](CCCCN)C(=O)N[C@@H](CO)C(=O)N1CCC[C@H]1C(=O)N[C@@H](CO)C(=O)O)[C@@H](C)OP(=O)(O)O)C(C)C [pT-231] |  |  |  |  |  |  |  |  | 1.46 OD@405 nm | 0.00 OD@405 nm | 1.30 OD@405 nm |  |  |  |  | 
Nedd4 WW-domain: GST-WW-domain of ubiquitin ligase Nedd4; text ties Table 1 to WW-domain-2 |  |  |  |  | bound only a few MPM-2 antigens |  |  |  |  |  |  | 20 µM | 10 µM | N.B.* | N.B. | did not bind
